The values below come from paper PMC3242765, “Inhibitors of Alphavirus Entry and Replication Identified with a Stable Chikungunya Replicon Cell Line and Virus-Based Assays” (PLoS ONE, 2011).

“Also recorded” adds a separate entry of the source. Like-named read-outs stand apart in the source and are kept apart here. Some results are limits rather than exact numbers.

One experiment has as its system CHIKV replicon. Kind of experiment: microbe, parasite or virus in culture. It is filed as cell-based, Chikungunya virus (CHIKV).
Another experiment relates to BHK-CHIKV-NCT cells. Nature of the experiment: Cell viability ATP assay, BHK-CHIKV-NCT cells. Format: cell-based, hamster.
A further experiment relates to BHK cells. Nature of the experiment: Cell viability ATP assay, BHK cells. Format: cell-based, hamster. As to conditions: Mesocricetus auratus, BHK, 48 h, read-out: Cell viability IC50.
The subject of experiment [1] is SFV. Kind of experiment: CPE reduction assay, SFV (WST-1). It is filed as cell-based, Semliki Forest virus (SFV). The conditions noted are these: Semliki Forest virus, BHK, 22 h, read-out: SFV IC50 (CPE reduction).
The next experiment concerns SINV. Kind of experiment: CPE reduction assay, SINV (WST-1). Format: cell-based, Sindbis virus (SINV). The conditions noted are these: Sindbis virus, BHK, 24 h, read-out: SINV IC50 (CPE reduction). (Tetrazolium dyes change colour on reduction, which living cells bring about.)
In experiment [2] the test system is SFV. Nature of the experiment: Viral yield analysis using a plaque assay. It is filed as cell-based, Semliki Forest virus (SFV). As to conditions: for SFV yield: BHK cells, MOI 0.01, 50 µM compound, 16 h, untreated control 1.4×10^9 PFU/ml; for Decrease of SFV titer versus untreated control: 50 µM compound, MOI 0.01, 16 h.
The next experiment relates to SFVts9-Rluc. Format: cell-based, Semliki Forest virus (SFV).
The next experiment relates to CHIKV-Rluc. Kind of experiment: microbe, parasite or virus in culture. It is filed as cell-based, Chikungunya virus (CHIKV). As to conditions: Chikungunya virus, BHK, 16 h, read-out: CHIKV-Rluc IC50.
The test system of experiment [3] is SFV-Rluc. As to conditions: for IC50: read-out: SFV IC50.
The test system of experiment [4] is SFV-Rluc. Kind of experiment: microbe, parasite or virus in culture. As to conditions: Semliki Forest virus, BHK; for IC50: 14 h, read-out: SFV IC50.
In experiment [5] the test system is CHIKV. The conditions noted are these: 2006 La Réunion outbreak; cited from earlier work.
Experiment [6] concerns CHIKV. As to conditions: cited from earlier work.
The mark [7] stands for this setting: Chikungunya virus, 48 h, read-out: EGFP IC50.
Where [8] appears, read: Chikungunya virus, 48 h, read-out: Rluc IC50.
Where [9] appears, read: Mesocricetus auratus, 48 h, read-out: Cell viability IC50, ATP assay, 48 h exposure of BHK-CHIKV-NCT cells, up to 200 µM.

Regarding `O=c1cc(-c2ccc(O)cc2)oc2cc(O)cc(O)c12` [Apigenin], in the experiment with CHIKV replicon, the “CHIKV replicon % left” value stood at 8.7%. For the same compound, the IC50 with CHIKV replicon (setting [7]) was 22.5 µM; with CHIKV replicon (setting [8]), 28.3 µM; with BHK-CHIKV-NCT cells (setting [9]), over 200 µM; in the experiment on BHK cells it was over 200 µM; in the experiment on SFV [1] it was 4.4 µM; with SINV, 7.2 µM. The IC50 in the experiment on CHIKV-Rluc is 70.8 µM; with SFV-Rluc [4], 20.6 µM. In addition, the SFV yield in the experiment on SFV [2] is 6.7×10^7 PFU/ml. For the same compound, in the experiment with SFVts9-Rluc, the “Effect on SFV entry (Rluc activity)” value was “None of the other compounds, including the flavonoids apigenin, chrysin, naringenin and silybin, inhibited SFV entry”. In the experiment on SFV-Rluc [3], the “SFV replication % left (surviving fraction, remaining percentage of SFV replication)” value amounted to 18.0%. The “SI (selectivity index)” value in the experiment with SFV-Rluc [3] is over 9.7.
As to `O=C1C[C@@H](c2ccc(O)cc2)Oc2cc(O)cc(O)c21` [Naringenin], in the experiment with CHIKV replicon, the “CHIKV replicon % left” value was found to be 6.2%. Also, the IC50 in the experiment on CHIKV replicon (setting [7]) was 25.8 µM; in the experiment on CHIKV replicon (setting [8]), 30 µM; in the experiment on BHK-CHIKV-NCT cells (setting [9]), 104 µM; with BHK-CHIKV-NCT cells (read-out: Cell viability IC50, ATP assay, 48 h exposure of BHK-CHIKV-NCT cells, up to 200 µM), 122 µM; in the experiment on BHK cells it was 94.1 µM; in the experiment on SFV [1], 19.3 µM. Also, the values for the IC50 in the experiment on SINV, in the experiment on CHIKV-Rluc and in the experiment with SFV-Rluc [4] were 21.2 µM, 118 µM and 2.2 µM, respectively. In the experiment on SFV [2], the SFV yield was 8.2×10^7 PFU/ml. For the same compound, the “Effect on SFV entry (Rluc activity)” value with SFVts9-Rluc is “None of the other compounds, including the flavonoids apigenin, chrysin, naringenin and silybin, inhibited SFV entry”. For the same compound, in the experiment with SFV-Rluc [3], the “SFV replication % left (surviving fraction, remaining percentage of SFV replication)” value was -0.0736%. The “SI (selectivity index)” value in the experiment on SFV-Rluc [3] is recorded as 42.8.
`COc1c(C)c2c(c(O)c1C/C=C(\C)CCC(=O)O)C(=O)OC2` [Mycophenolic acid, reference compound]: the “Change of replicon IC50 with guanosine supplementation” value with CHIKV replicon was “increased by at least two orders of magnitude”. In addition, the IC50 was about 1 µM in the experiment with CHIKV replicon (setting [7]); 1.5 µM in the experiment on CHIKV replicon (read-out: EGFP IC50); over 200 µM with BHK-CHIKV-NCT cells (setting [9]); over 200 µM with BHK cells; 39 µM with SFV [1]; 44.4 µM with SINV. For the same compound, the IC50 was 121 µM in the experiment with SFV-Rluc [3] and about 100 µM with SFV-Rluc [4]. Besides, the “Decrease of SFV titer versus untreated control” value (shortened to “Decrease”) in the experiment on SFV [2] was “approximately one order of magnitude”. In addition, the SFV yield in the experiment on SFV [2] is recorded as 1.2×10^8 PFU/ml. Besides, in the experiment on SFV-Rluc [3], the “SI (selectivity index)” value is given as over 1.7.
As for `CCN(CC)CCCC(C)Nc1ccnc2cc(Cl)ccc12` (stereo not shown) [Chloroquine], the “CHIKV replicon % left” value in the experiment on CHIKV replicon is 104.4%. Further, the “Suppression of CHIKV replicon (in words)” value with CHIKV replicon is given as “no suppression of replicon propagation; also recorded: has no effect on CHIKV replicon”. In addition, the IC50 in the experiment on BHK cells was over 200 µM; in the experiment with SFV [1] it was 8.2 µM; with SINV, 11.3 µM; with SFV-Rluc [4], 13.4 µM. The “Decrease” value in the experiment on SFV [2] is recorded as “two orders of magnitude”. For the same compound, the SFV yield in the experiment on SFV [2] is 3.3×10^7 PFU/ml. Further, the “Effect on Rluc signal of SFVts9-Rluc (entry)” value with SFVts9-Rluc is listed as “dose-dependent inhibition of Rluc signal”. Further, the “SFV replication % left (surviving fraction, remaining percentage of SFV replication)” value in the experiment on SFV-Rluc [3] worked out at 12.2%. Moreover, in the experiment with SFV-Rluc [3], the “SI (selectivity index)” value was over 14.9. Moreover, the “Clinical efficacy in acute CHIKV viremia (duration of viremia, severity and duration of symptoms)” value with CHIKV [5] is “failed to show any benefits”.
Take `NC(=O)c1ncn([C@@H]2O[C@H](CO)[C@@H](O)[C@H]2O)n1` [Ribavirin]: in the experiment on CHIKV replicon, the “Change of replicon IC50 with guanosine supplementation” value is “increased by at least two orders of magnitude”. The IC50 is 8.8 µM with CHIKV replicon (setting [7]); 25.4 µM in the experiment on CHIKV replicon (setting [8]); over 200 µM in the experiment on BHK-CHIKV-NCT cells (setting [9]); over 200 µM with BHK cells; 28.1 µM in the experiment with SFV [1]; 51.8 µM in the experiment with SINV. The values for the IC50 in the experiment with SFV-Rluc [3] and in the experiment with SFV-Rluc [4] were 95.1 µM and about 100 µM, respectively. For the same compound, the “Decrease” value with SFV [2] was “approximately one order of magnitude”. Further, in the experiment with SFV [2], the SFV yield is recorded as 2.1×10^8 PFU/ml.
In the case of `Nc1ncnc2c1ncn2[C@@H]1O[C@H](CO)[C@@H](N)[C@H]1O` [3′-NH2-3′-deoxyadenosine, 3′-amino-3′-deoxyadenosine], the IC50 in the experiment on CHIKV replicon (setting [7]) stood at 34 µM; in the experiment with CHIKV replicon (setting [8]), 62.4 µM; with BHK-CHIKV-NCT cells (setting [9]), 187 µM; in the experiment on BHK cells, 174 µM; with SFV [1], 17.5 µM; in the experiment with SINV it was 23.4 µM. For the same compound, the IC50 with SFV-Rluc [4] came to 16.2 µM. In addition, in the experiment with SFV [2], the “Decrease” value is given as “two orders of magnitude”. In the experiment with SFV [2], the SFV yield is reported as 2.7×10^7 PFU/ml. Moreover, the “SI (selectivity index)” value in the experiment with SFV-Rluc [3] was found to be 10.7.
For `CN(C)CCCN1c2ccccc2Sc2cccnc21` [Prothipendyl], the IC50 is 135 µM with CHIKV replicon (setting [7]); 93.3 µM in the experiment on CHIKV replicon (setting [8]); 186 µM with BHK-CHIKV-NCT cells (setting [9]); over 200 µM in the experiment on BHK cells; 34.2 µM in the experiment on SFV [1]; 46.5 µM in the experiment with SINV. In addition, the values for the IC50 with CHIKV-Rluc and with SFV-Rluc [4] were 97.3 µM and 8.2 µM, respectively. Further, the SFV yield in the experiment on SFV [2] was 4.0×10^8 PFU/ml. Besides, in the experiment on SFV-Rluc [3], the “SI (selectivity index)” value is on record as over 24.4.
By inhibition is commonly meant the change of the read-out against control, counted positive when it falls. `O=c1cnn([C@@H]2O[C@H](CO)[C@@H](O)[C@H]2O)c(=O)[nH]1` [6-Azauridine]: the IC50 in the experiment on BHK-CHIKV-NCT cells (setting [9]) is over 200 µM; in the experiment on BHK cells it was over 200 µM; with SFV [1], over 200 µM; in the experiment on SINV it was over 200 µM; in the experiment with CHIKV-Rluc, 29.7 µM; in the experiment with CHIKV [6] (approximate conversion of 0.2 µg/ml, read-out: previously reported potency for CHIKV, converted) it was about 0.8 µM. Besides, the IC50 with SFV-Rluc [4] was over 200 µM. Also, the SFV yield with SFV [2] was 9.1×10^7 PFU/ml. Further, the “previously reported potency for CHIKV” value in the experiment with CHIKV [6] was 0.2 µg/mL. Further, in the experiment on SFV-Rluc [4] (read-out: Inhibition of SFV-Rluc), the inhibition at 200 µM was found to be 40%.
Take `O=c1cc(-c2ccccc2)oc2cc(O)cc(O)c12` [Chrysin]: in the experiment on CHIKV replicon, the “CHIKV replicon % left” value was 13.8%. Besides, the IC50 with CHIKV replicon (setting [7]) is 46.8 µM; with CHIKV replicon (setting [8]), 50.2 µM; in the experiment on BHK-CHIKV-NCT cells (setting [9]), over 200 µM; with BHK cells, over 200 µM; in the experiment on SFV [1], 22.9 µM; with SINV, 43.3 µM. Also, the IC50 amounted to 127 µM in the experiment on CHIKV-Rluc and 13.7 µM with SFV-Rluc [4]. Also, the SFV yield in the experiment with SFV [2] is 2.9×10^8 PFU/ml. The “Effect on SFV entry (Rluc activity)” value with SFVts9-Rluc was “None of the other compounds, including the flavonoids apigenin, chrysin, naringenin and silybin, inhibited SFV entry”. Also, the “SFV replication % left (surviving fraction, remaining percentage of SFV replication)” value in the experiment with SFV-Rluc [3] worked out at 18.1%. In the experiment with SFV-Rluc [3], the “SI (selectivity index)” value is listed as over 14.6.
In the case of `COc1cc(C2Oc3cc([C@H]4Oc5cc(O)cc(O)c5C(=O)[C@@H]4O)ccc3OC2CO)ccc1O` (stereo partly shown) [Silybin], in the experiment with CHIKV replicon, the “CHIKV replicon % left” value is on record as 14.1%. Further, the IC50 with CHIKV replicon (setting [7]) was 71.1 µM; in the experiment with CHIKV replicon (setting [8]), 59.8 µM; with BHK-CHIKV-NCT cells (setting [9]) it was over 200 µM; in the experiment with BHK cells, over 200 µM; in the experiment on SFV [1], 9.6 µM; in the experiment on SINV it was 22.6 µM. The IC50 in the experiment on CHIKV-Rluc was 92.3 µM; in the experiment on SFV-Rluc [4] it was 16.4 µM. In addition, the SFV yield with SFV [2] is 3.7×10^8 PFU/ml. Further, in the experiment with SFVts9-Rluc, the “Effect on SFV entry (Rluc activity)” value was “None of the other compounds, including the flavonoids apigenin, chrysin, naringenin and silybin, inhibited SFV entry”. Moreover, the “SFV replication % left (surviving fraction, remaining percentage of SFV replication)” value with SFV-Rluc [3] is 22.4%. Besides, in the experiment with SFV-Rluc [3], the “SI (selectivity index)” value was over 12.2.
